One assay addresses JMJD2C (Homo sapiens (Human), UniProt Q9H3R0). Nature of the assay: In vitro enzyme inhibition assay for JMJD2C activity (TR-FRET). The class given is biochemical. The method in brief: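 Demethylation product H3K9me2 quantified by TR-FRET ratio 665/615 after EDTA stop and 1 h with Eu-anti-H3K9me2 and streptavidin-APC; IC50 by curve fit. Reaction: 0.3 nM JMJD2C (AA 2-372, baculovirus), 2 μM α-ketoglutarate, 300 nM biotin-H3K9me3 peptide, pH 7.3 HEPES with Fe(II)/ascorbate, 30 min room temperature.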
In general terms: TR-FRET usually uses a lanthanide donor and a delayed reading to cut background.

The target of another assay is JMJD3 (Homo sapiens, UniProt O15054). Description: In vitro enzyme inhibition assay for JMJD3 activity (TR-FRET). The class given is biochemical. On the procedure: This assay determines the ability of a test compound to inhibit JMJD3 demethylase activity.
The enzymatic assay of JMJD3 activity is based upon Time Resolved-Fluorescence Resonance Energy Transfer (TR-FRET) detection. […] Reaction product was determined quantitatively by TR-FRET after the addition of detection reagent Phycolink Streptavidin-allophycocyanin (Prozyme) and Europium-anti-di-methylated histone H3 lysine 27 (H3K27me2) antibody (PerkinElmer) in the presence of 5 mM EDTA in LANCE detection buffer (PerkinElmer) at a final concentration of 50 nM and 1 nM, respectively.
The reaction mixture was incubated at room temperature for 30 minutes, and terminated by the addition of 6 μL of 5 mM EDTA in LANCE detection buffer containing 100 nM Phycolink Streptavidin-allophycocyanin and 2 nM Europium-anti-H3K27me2 antibody.

For assay [1], the system named is KYSE-150 esophageal carcinoma cell line. Description: In vitro cell-based assay: cellular proliferation via BrdU incorporation (ELISA). More on the design: species or system human. To be noted: Homo sapiens, KYSE-150, 168 hours compound incubation. The procedure, abridged: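 BrdU incorporation during S-phase, detected colorimetrically at 450 nm by peroxidase ELISA, measured proliferation after 168 h compound exposure.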

Chain of JMJD2C (Q9H3R0 2-372): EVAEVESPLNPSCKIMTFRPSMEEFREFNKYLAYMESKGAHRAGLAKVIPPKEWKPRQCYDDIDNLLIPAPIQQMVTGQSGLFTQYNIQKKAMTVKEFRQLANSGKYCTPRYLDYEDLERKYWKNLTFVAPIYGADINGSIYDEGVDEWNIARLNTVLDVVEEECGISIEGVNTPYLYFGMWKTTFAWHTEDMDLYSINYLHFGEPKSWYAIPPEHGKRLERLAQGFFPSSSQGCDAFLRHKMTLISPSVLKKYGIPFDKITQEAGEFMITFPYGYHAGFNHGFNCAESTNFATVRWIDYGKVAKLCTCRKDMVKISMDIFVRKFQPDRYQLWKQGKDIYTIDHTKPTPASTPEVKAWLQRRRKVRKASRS

Take “3-({[(1R)-6-[benzyl(methyl)amino]-1,2,3,4-tetrahydronaphthalen-1-yl]methyl}amino)pyridine-4-carboxylic acid [Example 130]”: the IC50 (in general, the concentration that inhibits the measured activity by half) against JMJD2C is 0.1 to 1 µM; against JMJD3 it was 1 to 10 µM.
On the same counts, the results for `CN(c1ccccc1)c1ccc2c(c1)CCCC2CNc1cnccc1C(=O)O` (stereo in doubt) [Example 2, 3-({[(1S)-6-[methyl(phenyl)amino]-1,2,3,4-tetrahydronaphthalen-1-yl]methyl}amino)pyridine-4-carboxylic acid] are 0.1 to 1 µM and 1 to 10 µM.
On the same counts, the results for `CN(c1ccccc1)c1ccc2c(c1)CCC[C@@H]2CNc1cnccc1C(=O)O` [Example 1, 3-({[(1S)-6-[methyl(phenyl)amino]-1,2,3,4-tetrahydronaphthalen-1-yl]methyl}amino)pyridine-4-carboxylic acid] are 1 to 10 µM and 1 to 10 µM.
On to `CN(c1ccc2c(c1)CCC[C@H]2CNc1cnccc1C(=O)O)c1ccccn1` [Example 11, 3-({[(1R)-6-[methyl(pyridin-2-yl)amino]-1,2,3,4-tetrahydronaphthalen-1-yl]methyl}amino)pyridine-4-carboxylic acid], for which the IC50 against JMJD2C was 0.1 to 1 µM; against JMJD3, 1 to 10 µM; in assay [1], not above 0.1 µM.
On the same counts, the results for `O=C(O)c1ccncc1NCC1CCOc2cc(N3CCCc4ccccc43)ccc21` (stereo not shown) [Example 16, 3-({[7-(1,2,3,4-tetrahydroquinolin-1-yl)-3,4-dihydro-2H-1-benzopyran-4-yl]methyl}amino)pyridine-4-carboxylic acid] are 0.1 to 1 µM, 1 to 10 µM and 0.1 to 1 µM.
On the same counts, the results for `O=C(O)c1ccncc1NCC1CCOc2cc(N3CCc4ccccc43)ccc21` (stereo not shown) [Example 17, 3-({[7-(2,3-dihydro-1H-indol-1-yl)-3,4-dihydro-2H-1-benzopyran-4-yl]methyl}amino)pyridine-4-carboxylic acid] are 0.1 to 1 µM, 1 to 10 µM and 0.1 to 1 µM.
Consider `CN(c1ccccc1)c1ccc2c(c1)OCC[C@H]2CNc1cnccc1C(=O)O` [Example 18, 3-({[(4R)-7-[methyl(phenyl)amino]-3,4-dihydro-2H-1-benzopyran-4-yl]methyl}amino)pyridine-4-carboxylic acid], for which the IC50 is 0.1 to 1 µM against JMJD2C, 0.1 to 1 µM on JMJD3 and not above 0.1 µM in assay [1].
`CN(c1cccc(F)c1)c1ccc2c(c1)OCC[C@H]2CNc1cnccc1C(=O)O` [Example 20, 3-({[(4R)-7-[(3-fluorophenyl)(methyl)amino]-3,4-dihydro-2H-1-benzopyran-4-yl]methyl}amino)pyridine-4-carboxylic acid]: the IC50 on JMJD2C was 0.1 to 1 µM; against JMJD3, 1 to 10 µM; in assay [1], not above 0.1 µM.
On the same counts, the results for `CN(c1ccc(F)cc1)c1ccc2c(c1)OCC[C@H]2CNc1cnccc1C(=O)O` [Example 21, 3-({[(4R)-7-[(4-fluorophenyl)(methyl)amino]-3,4-dihydro-2H-1-benzopyran-4-yl]methyl}amino)pyridine-4-carboxylic acid] are 0.1 to 1 µM, 1 to 10 µM and not above 0.1 µM.
On the same counts, the results for `Cc1ccc(N(C)c2ccc3c(c2)OCC[C@H]3CNc2cnccc2C(=O)O)cc1` [Example 22, 3-({[(4R)-7-[methyl(4-methylphenyl)amino]-3,4-dihydro-2H-1-benzopyran-4-yl]methyl}amino)pyridine-4-carboxylic acid] are 0.1 to 1 µM, 1 to 10 µM and not above 0.1 µM.
On the same counts, the results for `CN(c1ccc(Cl)cc1)c1ccc2c(c1)OCC[C@H]2CNc1cnccc1C(=O)O` [Example 23, 3-({[(4R)-7-[(4-chlorophenyl)(methyl)amino]-3,4-dihydro-2H-1-benzopyran-4-yl]methyl}amino)pyridine-4-carboxylic acid] are 0.1 to 1 µM, 1 to 10 µM and not above 0.1 µM.
As to `CCN(c1ccccc1)c1ccc2c(c1)OCC[C@H]2CNc1cnccc1C(=O)O` [Example 24, 3-({[(4R)-7-[ethyl(phenyl)amino]-3,4-dihydro-2H-1-benzopyran-4-yl]methyl}amino)pyridine-4-carboxylic acid], the half-maximal inhibitory concentration (IC50) is 0.1 to 1 µM against JMJD2C, 1 to 10 µM on JMJD3 and not above 0.1 µM in assay [1].
On the same counts, the results for `O=C(O)c1ccncc1NCC1CCCc2nc(-c3ccccc3)ccc21` (stereo not shown) [Example 25] are 0.1 to 1 µM, 0.1 to 1 µM and more than 10 µM.
For the compound `CN(c1ccccc1)c1ccc2c(n1)CCCC2CNc1cnccc1C(=O)O` (stereo not shown) [Example 26, 3-[({2-[methyl(phenyl)amino]-5,6,7,8-tetrahydroquinolin-5-yl}methyl)amino]pyridine-4-carboxylic acid], the IC50 against JMJD2C was 0.1 to 1 µM; against JMJD3 it was 1 to 10 µM; in assay [1] it was 1 to 10 µM.
Turning to `O=C(O)c1ccncc1NCC1CCOc2cc(-c3ccoc3)ccc21` (stereo not shown) [Example 28, 3-({[7-(furan-3-yl)-3,4-dihydro-2H-1-benzopyran-4-yl]methyl}amino)pyridine-4-carboxylic acid], the concentration for half-maximal inhibition (IC50) against JMJD2C was 0.1 to 1 µM; on JMJD3 it was less than 0.1 µM; in assay [1], 1 to 10 µM.
Turning to `Cc1cccc(-c2ccc3c(c2)OCC[C@@H]3CNc2cnccc2C(=O)O)c1` [Example 29, 3-({[(4S)-7-(3-methylphenyl)-3,4-dihydro-2H-1-benzopyran-4-yl]methyl}amino)pyridine-4-carboxylic acid], the results for the half-maximal inhibitory concentration (IC50) on JMJD2C and at JMJD3 were 1 to 10 µM and 0.1 to 1 µM, respectively.
On the same counts, the results for `Cc1ccc(-c2ccc3c(c2)OCC[C@@H]3CNc2cnccc2C(=O)O)cc1` [Example 31, 3-({[(4S)-7-(4-methylphenyl)-3,4-dihydro-2H-1-benzopyran-4-yl]methyl}amino)pyridine-4-carboxylic acid] are 1 to 10 µM and 0.1 to 1 µM.
On the same counts, the results for `O=C(O)c1ccncc1NC[C@H]1CCOc2cc(-c3ccsc3)ccc21` [Example 33, 3-({[(4S)-7-(thiophen-3-yl)-3,4-dihydro-2H-1-benzopyran-4-yl]methyl}amino)pyridine-4-carboxylic acid] are 1 to 10 µM and less than 0.1 µM.
Turning to `O=C(O)c1ccncc1NC[C@@H]1CCOc2cc(-c3ccsc3)ccc21` [Example 34, 3-({[(4R)-7-(thiophen-3-yl)-3,4-dihydro-2H-1-benzopyran-4-yl]methyl}amino)pyridine-4-carboxylic acid], the figures for the IC50 (at JMJD2C; on JMJD3; in assay [1]) were 0.1 to 1 µM, 1 to 10 µM and 0.1 to 1 µM, respectively.
For `Cc1sccc1-c1ccc2c(c1)OCC[C@@H]2CNc1cnccc1C(=O)O` [Example 36, 3-({[(4S)-7-(2-methylthiophen-3-yl)-3,4-dihydro-2H-1-benzopyran-4-yl]methyl}amino)pyridine-4-carboxylic acid], the IC50 at JMJD2C fell in the range of 1 to 10 µM; on JMJD3 it was 0.1 to 1 µM.
On the same counts, the results for `O=C(O)c1ccncc1NC[C@H]1CCOc2cc(-c3ccccc3Cl)ccc21` [Example 39, 3-({[(4S)-7-(2-chlorophenyl)-3,4-dihydro-2H-1-benzopyran-4-yl]methyl}amino)pyridine-4-carboxylic acid] are 1 to 10 µM and 0.1 to 1 µM.
On the same counts, the results for `O=C(O)c1ccncc1NC[C@H]1CCOc2cc(Sc3cccc(F)c3)ccc21` [Example 52, 3-({[(4S)-7-[(3-fluorophenyl)sulfanyl]-3,4-dihydro-2H-1-benzopyran-4-yl]methyl}amino)pyridine-4-carboxylic acid] are 1 to 10 µM and 0.1 to 1 µM.
On the same counts, the results for `O=C(O)c1ccncc1NC[C@H]1CCOc2cc(Sc3ccc(F)cc3)ccc21` [Example 54, 3-({[(4S)-7-[(4-fluorophenyl)sulfanyl]-3,4-dihydro-2H-1-benzopyran-4-yl]methyl}amino)pyridine-4-carboxylic acid] are 1 to 10 µM and 0.1 to 1 µM.
Take `O=C(O)c1ccncc1NC[C@H]1CCOc2cc(-c3ccccc3)ccc21` [Example 83 of U.S. Pat. No. 8,952,151, 3-({[(4S)-7-phenyl-3,4-dihydro-2H-1-benzopyran-4-yl]methyl}amino)pyridine-4-carboxylic acid, reference compound]: the “fold more potent for JMJD3 than the R-enantiomer” value on JMJD3 (S-enantiomer vs R-enantiomer) is given as more than 100 fold.
For `O=C(O)c1ccncc1NC[C@@H]1CCOc2cc(-c3ccccc3O)ccc21` [Example 138, 3-({[(4R)-7-(2-hydroxyphenyl)-3,4-dihydro-2H-1-benzopyran-4-yl]methyl}amino)pyridine-4-carboxylic acid], the results for the IC50 at JMJD2C and at JMJD3 were 0.1 to 1 µM and 1 to 10 µM, respectively.
On the same counts, the results for `CN(c1ccc(OC(F)(F)F)cc1)c1ccc2c(c1)OCC[C@H]2CNc1cnccc1C(=O)O` [Example 182, 3-({[(4R)-7-{methyl[4-(trifluoromethoxy)phenyl]amino}-3,4-dihydro-2H-1-benzopyran-4-yl]methyl}amino)pyridine-4-carboxylic acid] are 0.1 to 1 µM and 1 to 10 µM.

For the origin of these results see patent US10106534B2 (CELGENE QUANTICEL RESEARCH, INC., priority 2014, dated 2018).
